Results taken from patent publication US11136342B2, “Carbonate prodrugs and methods of using the same” (Acorda Therapeutics, Inc., priority 2008, dated 2021).
In brackets after ≈: the same amount, converted by molar mass. Where two headings read alike, the source gives them in different places.

How the values were obtained:
Assay type in all cases: physicochemical
[1] = Prodrug stability in propylene glycol-d8 at room temperature by 1H and 31P NMR
Method: (4-acetamidophenyl carbonic) phosphoric anhydride (20.4 mg) was dissolved in 600 mg propylene glycol-d8 and ^1H and ^31P NMR spectra were recorded at room temperature. In addition to (4-acetamidophenyl carbonic) phosphoric anhydride (d−766 ppm), there were peaks at d+334, 265 (likely H3PO4) and +203 ppm.

[2] = Prodrug stability in D2O by proton NMR; settings: for Remaining Prodrug: water (D2O), room temperature
Method: (4-acetamidophenyl carbonic) phosphoric (29.5 mg) was dissolved in D2O (0.7 mL) and monitored by proton NMR.

[3] = Solubility of the prodrug in water, glycerol and propylene glycol; settings: for solubility: thermodynamic from solid
Method: Solubility of the prodrug (4-acetamidophenyl carbonic) phosphoric anhydride was determined in water, glycerol, and propylene glycol. 10 mg of (4-acetamidophenyl carbonic) phosphoric anhydride was weighed into a vial, small amounts of solvent were added and the mixture was sonicated until a solution formed.

[4] = Prodrug stability in propylene glycol-d8 at low temperature by 1H NMR
Method: Two samples of (4-acetamidophenyl carbonic) phosphoric anhydride (20 mg each) were dissolved in propylene glycol-d8 (600 mg) and the samples were stored at 4° C. and −20° C.

half-life at 34 mg/g solvent [1]: ~6.3 h
Remaining Prodrug 1H NMR ([1]; 10 min): 94.03%
Remaining Prodrug 31P NMR ([1]; 10 min): 96.7%
Remaining Prodrug 1H NMR ([1]; 18 min): 92.64%
Remaining Prodrug 31P NMR ([1]; 18 min): 94.5%
Remaining Prodrug 1H NMR ([1]; 28 min): 90.79%
Remaining Prodrug 31P NMR ([1]; 28 min): 92.1%
Remaining Prodrug 1H NMR ([1]; 41 min): 88.57%
Remaining Prodrug 31P NMR ([1]; 41 min): 89.9%
Remaining Prodrug 1H NMR ([1]; 51 min): 86.84%
Remaining Prodrug 31P NMR ([1]; 51 min): 88.4%
Remaining Prodrug 1H NMR ([1]; 61 min): 85.36%
Remaining Prodrug 31P NMR ([1]; 61 min): 86.4%
Remaining Prodrug 1H NMR ([1]; 70 min): 83.93%
Remaining Prodrug 31P NMR ([1]; 70 min): 85.0%
Remaining Prodrug 1H NMR ([1]; 120 min): 74.63%
Remaining Prodrug 31P NMR ([1]; 120 min): 77.6%
Remaining Prodrug 1H NMR ([1]; 169 min): 68.80%
Remaining Prodrug 31P NMR ([1]; 169 min): 71.7%
Remaining Prodrug 1H NMR ([1]; 228 min): 62.97%
Remaining Prodrug 31P NMR ([1]; 228 min): 64.9%
Remaining Prodrug 1H NMR ([1]; 297 min): 56.82%
Remaining Prodrug 31P NMR ([1]; 297 min): 57.4%
Remaining Prodrug 1H NMR ([1]; 345 min): 52.10%
Remaining Prodrug 31P NMR ([1]; 345 min): 52.8%
Remaining Prodrug 1H NMR ([1]; 380 min): 49.13%
Remaining Prodrug 31P NMR ([1]; 380 min): 49.6%
Remaining Prodrug 1H NMR ([1]; 425 min): 46.33%
Remaining Prodrug 31P NMR ([1]; 425 min): 46.6%
Remaining Prodrug 1H NMR ([1]; 446 min): 45.67%
Remaining Prodrug 31P NMR ([1]; 446 min): 44.0%
Remaining Prodrug 1H NMR ([1]; 1269 min): 19.61%
Remaining Prodrug 31P NMR ([1]; 1269 min): 17.1%
half-life at 42.1 mg/mL ([2]; D2O, 29.5 mg in 0.7 mL): ~1.5 h
Remaining Prodrug ([2]; 3 min): 94.4%
Remaining Prodrug ([2]; 9 min): 90.3%
Remaining Prodrug ([2]; 14 min): 86.4%
Remaining Prodrug ([2]; 29 min): 75.7%
Remaining Prodrug ([2]; 39 min): 70.9%
Remaining Prodrug ([2]; 49 min): 65.6%
Remaining Prodrug ([2]; 60 min): 61.0%
Remaining Prodrug ([2]; 75 min): 55.5%
Remaining Prodrug ([2]; 90 min): 50.6%
Remaining Prodrug ([2]; 105 min): 46.0%
Remaining Prodrug ([2]; 120 min): 41.7%
Remaining Prodrug ([2]; 146 min): 36.7%
Remaining Prodrug ([2]; 188 min): 29.3%
Remaining Prodrug ([2]; 270 min): 20.2%
Remaining Prodrug ([2]; 375 min): 13.9%
Remaining Prodrug ([2]; 420 min): 11.7%
Remaining Prodrug ([2]; 495 min): 8.4%
Remaining Prodrug ([2]; 840 min): 3.0%
Remaining Prodrug ([2]; 1410 min): 1.4%
solubility ([3]; organic solvent or mixture, glycerol d=1.25 g/mL, read-out: Solubility in glycerol): 20.6 mg/mL (≈ 74.9 mM)
solubility ([3]; organic solvent or mixture, propylene glycol d=1.036 g/mL, read-out: Solubility in propylene glycol): 154 mg/mL (≈ 560 mM)
solubility ([3]; water, room temperature, read-out: Solubility in water): 152 mg/mL (≈ 552 mM)
Water solubility relative to acetaminophen ([3]; water, room temperature): more than 10 times
Acetaminophen Formation ([4]; propylene glycol-d8, 4° C., 0.17 h): 7.1%
Acetaminophen Formation ([4]; propylene glycol-d8, 4° C., 19.3 h): 37.8%
Acetaminophen Formation ([4]; propylene glycol-d8, 4° C., 44.5 h): 58.5%
Acetaminophen Formation ([4]; propylene glycol-d8, 4° C., 68.7 h): 71.5%
Acetaminophen Formation ([4]; propylene glycol-d8, 4° C., 94.0 h): 79.3%
Acetaminophen Formation ([4]; propylene glycol-d8, 4° C., 116 h): 83.1%
Acetaminophen Formation ([4]; propylene glycol-d8, 4° C., 140 h): 84.6%
Acetaminophen Formation ([4]; propylene glycol-d8, −20° C., 0.17 h): 10.1%
Acetaminophen Formation ([4]; propylene glycol-d8, −20° C., 19.3 h): 15.0%
Acetaminophen Formation ([4]; propylene glycol-d8, −20° C., 44.5 h): 20.5%
Acetaminophen Formation ([4]; propylene glycol-d8, −20° C., 68.7 h): 25.0%
Acetaminophen Formation ([4]; propylene glycol-d8, −20° C., 94.0 h): 29.0%
Acetaminophen Formation ([4]; propylene glycol-d8, −20° C., 116 h): 32.2%
Acetaminophen Formation ([4]; propylene glycol-d8, −20° C., 140 h): 36.2%
Compound: CC(=O)Nc1ccc(OC(=O)OP(=O)(O)O)cc1 [(4-acetamidophenyl carbonic) phosphoric anhydride]
Effect of low temperature storage on stability ([4]; propylene glycol-d8, 4° C. and −20° C.): low temperature storage improved the stability
